Experimental data as given in patent publication US20250042897A1, “HETEROCYCLIC COMPOUNDS AS TRIGGERING RECEPTOR EXPRESSED ON MYELOID CELLS 2 AGONISTS AND METHODS OF USE” (Vigil Neuroscience, Inc., priority 2021, published 2025).

Target: T1, human TREM2 (Homo sapiens, UniProt Q9NZC2)
T1 construct: expressed in transfected cells; host or cells: HEK293T
Assay: hTREM2 agonist potency by cellular Syk phosphorylation (AlphaLisa) in HEK293T-hTREM2 cells
Type: cell-based
Settings: Table D-2; HEK293 cells expressing human TREM2 and DAP12; pSyk AlphaLisa; 45 minutes at room temperature
Experimental: In Vitro Measurement of Triggering Receptor Expressed on Myeloid Cells 2 Activity Using Cellular Phosphorylation of Spleen Tyrosine Kinase (“Syk”) Assays
Measurement of TREM2 agonist potency was done using a HEK cell line expressing human TREM2 and DAP12 (HEK293T-hTREM2 cells). Binding of small molecules to, and activation of, TREM2 increases the phosphorylation of Syk. The resultant levels of Syk phosphorylation are measured using a commercial AlphaLisa reagent kit. To perform the assay, HEK-hTREM2 cells were plated at 14,000 cells per well in a 384 well plate, in 25 μL of complete growth media and incubated at 37° C., 5% CO2 for 20-24 hours.
Prior to the assay, test compounds were diluted in the 384 well plates in assay buffer and allowed to equilibrate for 30 minutes. Growth media was removed from cell plates by inversion on blotting paper, and 25 μL of test articles in assay buffer was added to cells. Cells were incubated for 45 minutes at room temperature. After 45 minutes, assay buffer was removed and 10 μL of lysis buffer was added. Plates were shaken for 20 minutes at 350 RPM at room temperature. After complete lysis, AlphaLisa reagents were added to the lysate, and fluorescence intensity was measured using a Perkin Elmer Envision plate reader. Intensities were used to generate a standard curve, and % activation was calculated. Curve fitting was performed using Prism v9 software, log (agonist) vs response-variable slope (four parameters), and EC50s were calculated from the curve fit.
The results presented in Table D have been generated with the in vitro assay described above. This assay may be used to test any of the compounds described herein to assess and characterize a compound's ability to act as an agonist of TREM2.

T1 sequence (Q9NZC2 19-230): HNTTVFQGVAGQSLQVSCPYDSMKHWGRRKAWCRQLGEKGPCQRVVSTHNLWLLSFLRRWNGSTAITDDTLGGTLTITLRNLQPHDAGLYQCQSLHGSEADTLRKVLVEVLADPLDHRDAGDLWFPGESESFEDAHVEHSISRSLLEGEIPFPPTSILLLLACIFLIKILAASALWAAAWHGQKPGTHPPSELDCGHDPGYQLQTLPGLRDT
T1 sequence (O43914 22-113 partner): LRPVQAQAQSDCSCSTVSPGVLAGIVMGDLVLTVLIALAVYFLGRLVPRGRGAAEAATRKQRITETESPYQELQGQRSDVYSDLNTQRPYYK

| Compound | EC50 [nM] |
| --- | --- |
| Cn1ncc2c(-c3ccc(F)cc3F)nc(C3CCO[C@@H](c4cn(C5CC5)[n+](C)c4)C3)nc2c1=O (stereo partly drawn) [I-157, 2-[(2R)-2-(1-cyclopropyl-2-methyl-pyrazol-2-ium-4-yl)tetrahydropyran-4-yl]-4-(2,4-difluorophenyl)-7-methyl-pyrimido[4,5-d]pyridazin-8-one] | 500 to 3000 |
| C[C@@H]1CN(c2cc(-c3ccc(Cl)cc3F)c3cnn(C)c(=O)c3n2)C[C@H](c2cnn(C3CC3)c2)O1 [I-100, 4-(4-chloro-2-fluorophenyl)-2-((2S,6R)-2-(1-cyclopropyl-1H-pyrazol-4-yl)-6-methylmorpholino)-7-methylpyrido[2,3-d]pyridazin-8 (7H)-one] | 50 to 500 |
| CC1Nc2c(nc([C@H]3CCO[C@@H](c4cnn(C5CC5)c4)C3)nc2-c2ccc(F)cc2F)C(=O)N1C (stereo partly shown) [I-173] | 500 to 3000 |
| Cn1ncc2c(-c3ccc(C(F)(F)F)cc3F)nc([C@H]3CCO[C@@H](c4cnn(C5CC5)c4)C3)cc2c1=O [I-53, 7-[(2R, 4S)-2-(1-cyclopropylpyrazol-4-yl)tetrahydropyran-4-yl]-5-[2-fluoro-4-(trifluoroomethyl)phenyl]-2-methyl-pyrido[3,4-d]pyridazin-1-one] | 50 to 500 |
| Cc1nc2c(-c3ccc(F)cc3F)cc([C@H]3CCO[C@@H](c4cnn(C5CC5)c4)C3)nc2c(=O)n1C [I-120, 6-((2R,4S)-2-(1-cyclopropyl-1H-pyrazol-4-yl)tetrahydro-2H-pyran-4-yl)-8-(2,4-difluorophenyl)-2,3-dimethylpyrido[3,2-d]pyrimidin-4 (3H)-one] | 50 to 500 |
| Cn1ncc2c(-c3ccc(F)cc3F)nc(C3CCO[C@@H](c4cnn(C5CC5)c4)C3)nc2c1=O (stereo partly drawn) [I-146, 2-[(2R)-2-(1-cyclopropylpyrazol-4-yl)tetrahydropyran-4-yl]-4-(2,4-difluorophenyl)-7-methyl-pyrimido[4,5-d]pyridazin-8-one] | 50 to 500 |

Continued, values first:

| EC50 [nM] | Compound |
| --- | --- |
| ≤ 50 | Cc1nc2c(-c3ccc(C(F)(F)F)cc3F)nc([C@H]3CCO[C@@H](c4cnn(C5CC5)c4)C3)nc2c(=O)n1C [I-134, 6-[(2R,4S)-2-(1-cyclopropylpyrazol-4-yl)tetrahydropyran-4-yl]-8-[2-fluoro-4-(trifluoromethyl)phenyl]-2,3-dimethyl-pyrimido[5,4-d]pyrimidin-4-one] |
| ≤ 50 | Cn1ncc2c(-c3ccc(Cl)cc3F)nc([C@H]3CCO[C@@H](c4cnn(C5CC5)c4)C3)cc2c1=O [I-48, 5-(4-chloro-2-fluoro-phenyl)-7-[(2R,4S)-2-(1-cyclopropylpyrazol-4-yl)tetrahydropyran-4-yl]-2-methyl-pyrido[3,4-d]pyridazin-1-one] |
| ≤ 50 | C[C@@H]1CN(c2nc(-c3ccc(F)cc3F)c3cnn(C)c(=O)c3n2)C[C@H](c2cnn(C3CC3)c2)O1 [I-141, 2-[(2S, 6R)-2-(1-cyclopropylpyrazol-4-yl)-6-methyl-morpholin-4-yl]-4-(2,4-difluorophenyl)-7-methyl-pyrimido[4,5-d]pyridazin-8-one] |
| ≤ 50 | Cc1nc2nc([C@H]3CCO[C@@H](c4cnn(C5CC5)c4)C3)cc(-c3ccc(F)cc3F)c2c(=O)n1C (single isomer, unassigned) [I-40] |
| ≤ 50 | Cc1cc2c(-c3ccc(C(F)(F)F)cc3F)nc([C@H]3CCO[C@@H](c4cnn(C5CC5)c4)C3)cc2c(=O)n1C [I-95, 7-((2R,4S)-2-(1-cyclopropyl-1H-pyrazol-4-yl)tetrahydro-2H-pyran-4-yl)-5-(2-fluoro-4-(trifluoromethyl)phenyl)-2,3-dimethyl-2,6-naphthyridin-1 (2H)-one] |
| ≤ 50 | Cn1ncc2c(-c3ccc(Cl)cc3F)nc(N3C[C@@H](C4CC4)O[C@@H](c4cnn(C5CC5)c4)C3)nc2c1=O (single isomer, unassigned) [I-183] |

Same assay, conditions: Table D; HEK293 cells expressing human TREM2 and DAP12; pSyk AlphaLisa; 45 minutes at room temperature

| EC50 [nM] | Compound |
| --- | --- |
| 50 to 500 | Cc1nc2cc(N3CCO[C@@H](c4cc[nH]c(=O)c4)C3)nc(-c3ccc(F)cc3F)c2c(=O)n1C [compound 2, (S)-5-(2,4-difluorophenyl)-2,3-dimethyl-7-(2-(2-oxo-1,2-dihydropyridin-4-yl)morpholino)pyrido[4,3-d]pyrimidin-4(3H)-one] |
